Reference: US12528818B2, “Compositions and methods for inhibition of RAS” (Leidos Biomedical Research, Inc., priority 2021, dated 2026)
Like-named read-outs stand apart in the source and are kept apart here.

Test system: pERK in NCI-H358 cells
Test: Cell-based pERK HTRF assay (pERK inhibition in H358 cells)
Conditions: pERK inhibition IC50, NCI-H358 cells, 30 min incubation, read-out: PERK in H358 cell

Row | IC50 (Homo sapiens, NCI-H358, 0.5 h) [nM] | IC50 [nM] | SMILES
1 | < 100 |  | C=CC(=O)N1C[C@H](F)[C@@H](N(C)c2nc(OC[C@@]34CCCN3C[C@H](F)C4)nc3cc(-c4ccc(F)c5sc(N)c(C#N)c45)c(C(F)(F)F)cc23)C1 [Compound 320]
2 | < 100 |  | C=CC(=O)N1[C@@H](C)CN(c2nc(OC[C@@]34CCCN3C[C@H](OC)C4)nc3c(F)c(-c4ccc(F)c5sc(N)c(C#N)c45)c(C(F)(F)F)cc23)C[C@@H]1C (atropisomer, axis not shown) [Compound 364]
3 | < 100 |  | C=CC(=O)N1CCN(c2nc(OC[C@@]34CCCN3C[C@H](F)C4)nc3c(F)c(-c4ccc(F)c5sc(N)c(C#N)c45)c(C(F)(F)F)cc23)[C@@H](C)C1 [Compound 347]
4 | < 100 |  | C=CC(=O)N1CC[C@@H](N(CC)c2nc(OC[C@@]34CCCN3C[C@H](F)C4)nc3c(F)c(-c4ccc(F)c5sc(N)c(C#N)c45)c(C(F)(F)F)cc23)[C@H]1COC [Compound 442]
5 | > 1000 |  | C=CC(=O)N1CC[C@@H](N(C)c2nc(OCC)nc3c(F)c(-c4ccc(F)c5sc(N)c(C#N)c45)ccc23)[C@H]1C [Compound 463]
6 | < 100 |  | C=CC(=O)N1CCC(N(C)c2nc(OC[C@@H]3CC4(CC4)CN3C)nc3c(F)c(-c4ccc(F)c5sc(N)c(C#N)c45)c(C(F)(F)F)cc23)[C@H]1COC (stereo partly shown) [Compound 456]
7 | < 100 |  | C=CC(=O)N1CC[C@H](N(C)c2nc(OC[C@@]34CCCN3C[C@H](F)C4)nc3c(F)c(-c4ccc(F)c5sc(N)c(C#N)c45)c(C(F)(F)F)cc23)[C@@H]1C (single isomer, unassigned) [Compound 472]
8 | < 100 |  | C=CC(=O)N1C[C@@H](F)[C@@H](N(C)c2nc(OC[C@@H]3C[C@@H](F)CN3C)nc3cc(-c4ccc(F)c5sc(N)nc45)c(C(F)(F)F)cc23)C1 [Compound 355]
9 |  | 100 to 1000 | C=CC(=O)N1C[C@H](C)N(c2nc(OC[C@@]34CCCN3C[C@H](F)C4)nc3c(F)c(-c4ccc(F)c5sc(N)c(C#N)c45)c(C(F)(F)F)cc23)C[C@H]1C (single isomer, unassigned) [Compound 314]
10 | < 100 |  | C=CC(=O)N1C[C@H](C)N(c2nc(OC[C@@]34CCCN3C[C@H](F)C4)nc3c(F)c(-c4ccc(F)c5sc(N)c(C#N)c45)c(C#N)cc23)C[C@H]1C [Compound 324, 4-((2S,5R)-4-acryloyl-2,5-dimethylpiperazin-1-yl)-7-(2-amino-3-cyano-7-fluorobenzo[b]thiophen-4-yl)-8-fluoro-2-(((2R,7aS)-2-fluorotetrahydro-1H-pyrrolizin-7a(5H)-yl)methoxy)quinazoline-6-carbonitrile]
11 | < 100 |  | C=CC(=O)N1CCC(N(C)c2nc(OC[C@]34CCCN3C[C@H](F)C4)nc3c(F)c(-c4ccc(F)c5sc(N)c(C#N)c45)c(C(F)(F)F)cc23)[C@H]1C (stereo partly shown) [Compound 477]
12 | < 100 |  | C=CC(=O)N1CC[C@@H](N(C)c2nc(N3CC(N4CC5(CC5)C4)C3)nc3c(F)c(-c4ccc(F)c5sc(N)c(C#N)c45)c(C(F)(F)F)cc23)C1 [Compound 340]
13 | < 100 |  | C=CC(=O)N1C[C@@H](F)[C@@H](N(CC)c2nc(OC[C@@]34CCCN3C[C@H](F)C4)nc3cc(-c4ccc(F)c5sc(N)c(C#N)c45)ccc23)C1 [Compound 377]
14 | 100 to 1000 |  | C=CC(=O)N1C[C@@H](F)[C@@H](N(C)c2nc(OC[C@@]34CCCN3C[C@H](F)C4)nc3c(F)c(-c4ccc(F)c5sc(N)nc45)c(C#N)cc23)C1 [Compound 360]
15 | < 100 |  | C=CC(=O)N1C[C@H](C)N(c2nc(OC)nc3c(F)c(-c4ccc(F)c5sc(N)c(C#N)c45)c(C(F)(F)F)cc23)C[C@H]1C [Compound 385]
16 | < 100 |  | C=CC(=O)N1CCC(N(C)c2nc(OC[C@@]34CCCN3C[C@H](F)C4)nc3c(F)c(-c4ccc(F)c5sc(N)c(C#N)c45)ccc23)[C@H]1COC (stereo partly shown) [Compound 402]
17 | < 100 |  | C=CC(=O)N1CC[C@@H](N(C)c2nc(OC[C@@]34CCCN3C[C@H](F)C4)nc3c(F)c(-c4ccc(F)c5sc(N)c(C#N)c45)c(C(F)(F)F)cc23)[C@@H]1C [Compound 469]
18 | 100 to 1000 |  | C=CC(=O)N1CCC(N(CC)c2nc(OC[C@@]34CCCN3C[C@H](F)C4)nc3c(C#N)c(-c4ccc(F)c5sc(N)c(C#N)c45)ccc23)[C@H]1COC (stereo partly shown) [Compound 428]
19 | < 100 |  | C=CC(=O)N1C[C@@H](F)[C@@H](N(C)c2nc(OC[C@@H]3CC4(CC4)CN3C)nc3cc(-c4ccc(F)c5sc(N)c(C#N)c45)c(C(F)(F)F)cc23)C1 [Compound 357]
20 | < 100 |  | C=CC(=O)N1CCC(N(C)c2nc(OC[C@@H]3C[C@@H](OC)CN3C)nc3c(F)c(-c4ccc(F)c5sc(N)c(C#N)c45)c(C(F)(F)F)cc23)[C@H]1C (stereo partly shown) [Compound 407]
21 | < 100 |  | C=CC(=O)N1CC[C@@H](N(C)c2nc(OC[C@@]34CCCN3C[C@H](F)C4)nc3c(F)c(-c4ccc(F)c5sc(N)c(C#N)c45)c(C#N)cc23)C1 [Compound 325]
22 | < 100 |  | C=CC(=O)N1CC[C@@H](N(C)c2nc(OC[C@@]34CCCN3C[C@H](F)C4)nc3c(F)c(-c4ccc(F)c5sc(N)c(C#N)c45)c(F)cc23)C1 [Compound 343]
23 | < 100 |  | C=CC(=O)N1C[C@@H](F)[C@@H](N(C)c2nc(OC[C@@H]3C[C@@H](OC)CN3C)nc3cc(-c4ccc(F)c5sc(N)c(C#N)c45)c(C(F)(F)F)cc23)C1 [Compound 361]

Second part, the molecule before the results:

Row | SMILES | IC50 (Homo sapiens, NCI-H358, 0.5 h) [nM] | IC50 [nM]
24 | C=CC(=O)N1CC(N(C)c2nc(OC[C@@]34CCCN3C[C@H](F)C4)nc3c(F)c(-c4ccc(F)c5sc(N)nc45)c(C(F)(F)F)cc23)C1 [Compound 223] | < 100 | 
25 | C=CC(=O)N1CC[C@@H]2[C@H]1CN2c1nc(OC[C@@H]2CCCN2C)nc2c(F)c(-c3ccc(F)c4sc(N)nc34)c(Cl)cc12 [Compound 66] | < 100 | 
26 | C=CC(=O)N1CCN(c2nc(OC[C@]34CCCN3C[C@H](F)C4)nc3c(F)c(-c4ccc(F)c5sc(N)nc45)c(C(F)(F)F)cc23)CC1 [Compound 150] | < 100 | 
27 | C=CC(=O)N1CCN(c2nc(OCC34CCCN3CCC4)nc3c(F)c(-c4ccc(F)c5sc(N)nc45)c(OC(F)F)cc23)CC1 [Compound 254] | 100 to 1000 | 
28 | C=CC(=O)N1CCN(c2nc(OCC34CCCN3CCC4)nc3c(F)c(-c4ccc(F)c5oc(N)nc45)c(C(F)(F)F)cc23)CC1 [Compound 162, 1-(4-(7-(2-amino-7-fluorobenzo[d]oxazol-4-yl)-8-fluoro-2-((tetrahydro-1H-pyrrolizin-7a(5H)-yl)methoxy)-6-(trifluoromethyl)quinazolin-4-yl)piperazin-1-yl)prop-2-en-1-one] | 100 to 1000 | 
29 | C=CC(=O)N1CC[C@@H](N(C)c2nc(OC[C@@]34CCCN3C[C@H](F)C4)nc3c(F)c(-c4ccc(F)c5sc(N)nc45)c(Cl)cc23)C1 [Compound 195, 1-((3R)-3-((7-(2-amino-7-fluorobenzo[d]thiazol-4-yl)-6-chloro-8-fluoro-2-(((2R,7aS)-2-fluorotetrahydro-1H-pyrrolizin-7a(5H)-yl)methoxy)quinazolin-4-yl)(methyl)amino)pyrrolidin-1-yl)prop-2-en-1-one] | < 100 | 
30 | C=CC(=O)N1CC(N(C)c2nc(OC[C@@H]3CC(F)(F)CN3C)nc3c(F)c(-c4ccc(F)c5sc(N)nc45)c(C(F)(F)F)cc23)C1 [Compound 181] | > 1000 | 
31 | CC#CC(=O)N1CC[C@@H]2[C@H]1CN2c1nc(OCC23CCCN2CCC3)nc2c(F)c(-c3ccc(F)c4sc(N)nc34)c(-c3ccoc3)cc12 [Compound 120] | > 1000 | 
32 | C=CC(=O)N1CC(Nc2nc(OC[C@@H]3CCCN3C)nc3c(F)c(-c4ccc(F)c5sc(N)nc45)c(-c4ccoc4)cc23)C1 [Compound 93] | > 1000 | 
33 | C=CC(=O)N1CC(Nc2nc(OC[C@@H]3CCCN3C)nc3c(F)c(-c4ccc(F)c5sc(N)nc45)ncc23)C1 [Compound 43] | > 1000 | 
34 | C=CC(=O)N1CC[C@@H](N(C)c2nc(OC[C@]34CCCN3C[C@H](OC)C4)nc3c(F)c(-c4ccc(F)c5sc(N)nc45)c(C(F)(F)F)cc23)C1 (atropisomer, axis not shown) [Compound 278] |  | 100 to 1000
35 | C=CC(=O)N1CCN(c2nc(OC[C@@H]3CC(F)(F)CN3C)nc3c(F)c(-c4ccc(F)c5sc(N)nc45)c(C(F)(F)F)cc23)CC1 [Compound 131] | < 100 | 
36 | C=CC(=O)N1CC[C@@H](N(C)c2nc(OC[C@@]34CCCN3C[C@H](F)C4)nc3cc(-c4c(F)cc(F)c5sc(N)nc45)c(C(F)(F)F)cc23)C1 [Compound 305] | < 100 | 
37 | C=CC(=O)N1C[C@H](C)N(c2nc(OC[C@@]34CCCN3C[C@H](F)C4)nc3c(F)c(-c4ccc(F)c5sc(N)nc45)c(OC(F)F)cc23)C[C@H]1C [Compound 280] | < 100 | 
38 | C=CC(=O)N1CC[C@@H](N(C)c2nc(OC[C@@]34CCCN3C[C@H](F)C4)nc3cc(-c4ccc(F)c5sc(N)nc45)c(C(F)(F)F)cc23)C1 [Compound 300] | < 100 | 
39 | C=CC(=O)N1C[C@H](N(C)c2nc(OC[C@@]34CCCN3C[C@H](F)C4)nc3c(F)c(-c4ccc(F)c5sc(N)nc45)c(C(F)(F)F)cc23)C[C@@H]1C [Compound 293] | < 100 | 
40 | C=C(F)C(=O)N1CCN(c2nc(OC[C@]34CCCN3C[C@H](F)C4)nc3c(F)c(-c4ccc(F)c5sc(N)nc45)c(C(F)(F)F)cc23)C[C@H]1C [Compound 191] | 100 to 1000 | 
41 | CC#CC(=O)N1CCN(c2nc(OC[C@]34CCCN3C[C@H](F)C4)nc3c(F)c(-c4ccc(F)c5sc(N)nc45)c(C(F)(F)F)cc23)CC1 [Compound 149] | < 100 | 
42 | C=C(F)C(=O)N1CCN(c2nc(OC[C@]34CCCN3C[C@H](F)C4)nc3c(F)c(-c4ccc(F)c5sc(N)nc45)c(C(F)(F)F)cc23)[C@H](C)C1 [Compound 199] | 100 to 1000 | 
43 | C=CC(=O)N1CC(N(CC)c2nc(OC[C@]34CCCN3C[C@H](F)C4)nc3c(F)c(-c4ccc(F)c5sc(N)nc45)c(C(F)(F)F)cc23)C1 [Compound 206] | 100 to 1000 | 
44 | C=CC(=O)N1CC[C@@H](N(CC)c2ncnc3c(F)c(-c4ccc(F)c5sc(N)nc45)c(C(F)(F)F)cc23)C1 [Compound 248] | 100 to 1000 | 
45 | C=CC(=O)N1CC[C@@H](N(C)c2ncnc3c(F)c(-c4ccc(F)c5sc(N)nc45)c(C(F)(F)F)cc23)C1 [Compound 225] | 100 to 1000 | 
46 | C=CC(=O)N1C[C@H](C)[C@@H](N(C)c2nc(OC[C@@]34CCCN3C[C@H](F)C4)nc3c(F)c(-c4ccc(F)c5sc(N)nc45)c(C(F)(F)F)cc23)C1 [Compound 296] | < 100 | 
